Source: patent US9669003B2, “Use of flavone and flavanone derivatives in preparation of sedative and hypnotic drugs” (priority 2012, dated 2017)
Marks after values point to notes of the source that are not given here.

Tests used:
Format in all cases: in vivo
[1] = test system: Kunming mice; experiment: Influence on hypnosis effect with pentobarbital sodium doses at the threshold (50 mg/kg i.p.); details: pentobarbital sodium 50 mg/kg i.p. 60 min later, x ± s, n = 10
Procedure, shortened: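 Pentobarbital sodium (0.3%, 50 mg/kg i.p.) injected 60 min after a single intragastric dose (25, 50, 100 mg/kg, 0.5% CMC-Na vehicle) in Kunming mice, 10 per group, sexes balanced. Onset and length of sleep (righting reflex lost over 1 min) analysed by ANOVA; sleeping incidence by χ2 test.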

[2] = test system: Kunming mice; experiment: Influence on hypnosis effect with pentobarbital sodium doses below the threshold (25 mg/kg i.p.); details: pentobarbital sodium 25 mg/kg i.p. 60 min later, sleep observed in 30 min, n = 10
Procedure, shortened: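 Percentage of mice sleeping within 30 min after subthreshold pentobarbital sodium (25 mg/kg i.p.), defined by loss of righting reflex over 1 min, analysed by χ2. Compound in 0.5% CMC-Na given intragastrically at 25/50/100 mg/kg 60 min before; groups of 10 Kunming mice, both sexes.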

[3] = test system: Kunming mice; experiment: Influence on autonomic activity of normal mice (ZIL-2 mice autonomic activity meter, counts within 10 min); details: intragastric, x ± s, n = 10; for Times of activities in 1 h after drug administration/10 min: 1 h after administration; for Times of activities in 2 h after drug administration/10 min: 2 h after administration; for Times of activities in 24 h after drug administration/10 min: 24 h after administration
Procedure, shortened: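 Activity counts during a 10-min window were taken at 1, 2 and 24 h after dosing in groups of 10 mixed-sex Kunming mice. Compounds were given in 0.5% CMC-Na at 25, 50 or 100 mg/kg. Statistics used Levene's homogeneity test, ANOVA and Dunnett's multiple comparisons.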

[4] = 25 mg/kg intragastric single dose
[5] = 50 mg/kg intragastric single dose
[6] = 100 mg/kg intragastric single dose
[7] = test drug 25 mg/kg intragastric single dose
[8] = test drug 50 mg/kg intragastric single dose
[9] = test drug 100 mg/kg intragastric single dose

Row | SMILES | duration of sleep [1, 4] [min] | time to sleep [1, 4] [min] | duration of sleep [1, 5] [min] | time to sleep [1, 5] [min] | duration of sleep [1, 6] [min] | time to sleep [1, 6] [min] | Number of sleeping animals [2, 7] | rate of sleeping (%) [2, 7] | Number of sleeping animals [2, 8] | rate of sleeping (%) [2, 8] | Number of sleeping animals [2, 9] | rate of sleeping (%) [2, 9] | Times of activities in 1 h after drug administration/10 min ([3]; 25 mg/kg) | Times of activities in 2 h after drug administration/10 min ([3]; 25 mg/kg) | Times of activities in 24 h after drug administration/10 min ([3]; 25 mg/kg) | Times of activities in 1 h after drug administration/10 min ([3]; 50 mg/kg) | Times of activities in 2 h after drug administration/10 min ([3]; 50 mg/kg) | Times of activities in 24 h after drug administration/10 min ([3]; 50 mg/kg) | Times of activities in 1 h after drug administration/10 min ([3]; 100 mg/kg) | Times of activities in 2 h after drug administration/10 min ([3]; 100 mg/kg) | further results
1 | COc1ccc(C2CC(=O)c3c(OC)cc(OC)c(OC)c3O2)cc1OC (stereo not drawn) [Example 44, 5,7,8,3′,4′-penta methoxyl-flavanone] | 58.25 ± 15.16 | 4.43 ± 1.55 | 76.74 ± 25.45 | 3.46 ± 1.23 | 89.39 ± 23.44 | 3.05 ± 1.57 | 6 | 60** % | 7 | 70** % | 9 | 90*** % | 220.8 ± 54.6 /10 min | 228.7 ± 43.3 /10 min | 311.6 ± 60.1 /10 min | 143.4 ± 41.3 /10 min | 133.5 ± 38.3 /10 min | 315.1 ± 85.5 /10 min | 103.4 ± 43.5 /10 min | 101.7 ± 45.1 /10 min | Times of activities in 24 h after drug administration/10 min ([3]; 100 mg/kg): 303.8 ± 81.2 /10 min
2 | COc1ccc(C2CC(=O)c3cc(OC)c(OC)c(OC)c3O2)cc1OC (stereo not drawn) [Example 45, 6,7,8,3′,4′-penta methoxyl-flavanone] | 59.67 ± 19.87 | 4.19 ± 1.78 | 66.42 ± 28.90 | 3.26 ± 1.24 | 90.03 ± 23.72 | 2.17 ± 1.14 | 5 | 50** % | 6 | 60** % | 10 | 100*** % | 235.6 ± 44.5 /10 min | 223.2 ± 41.4 /10 min | 299.2 ± 61.3 /10 min | 136.6 ± 40.5 /10 min | 123.3 ± 47.6 /10 min | 291.5 ± 60.4 /10 min | 112.5 ± 35.4 /10 min | 105.6 ± 48.5 /10 min | Times of activities in 24 h after drug administration/10 min ([3]; 100 mg/kg): 288.8 ± 69.5 /10 min
3 | COc1cc(OC)c2c(c1)OC(c1cc(OC)c(OC)c(OC)c1)CC2=O (stereo not drawn) [Example 46, 5,7,3′,4′,5′-penta methoxyl-flavanone] | 27.80 ± 23.24 | 5.52 ± 2.31 | 47.16 ± 23.51 | 4.22 ± 1.23 | 55.58 ± 20.72 | 3.96 ± 2.45 | 3 | 30% | 6 | 60** % | 7 | 70** % | 300.8 ± 49.2 /10 min | 299.2 ± 38.9 /10 min | 275.4 ± 81.3 /10 min | 264.4 ± 41.3 /10 min | 254.1 ± 53.2 /10 min | 284.7 ± 78.7 /10 min | 176.8 ± 43.2 /10 min | 163.4 ± 36.5 /10 min | Times of activities in 24 h after drug administration/10 min ([3]; 100 mg/kg): 294.4 ± 67.5 /10 min
4 | COc1ccc(C2CC(=O)c3c(OC)c(OC)c(OC)c(OC)c3O2)cc1 (stereo not drawn) [Example 47, 5,6,7,8,4′-penta methoxyl-flavanone] | 39.86 ± 16.75 | 4.45 ± 1.43 | 43.26 ± 20.65 | 3.72 ± 1.65 | 59.78 ± 19.65 | 3.18 ± 1.54 | 4 | 40* % | 7 | 70** % | 8 | 80*** % | 328.6 ± 49.7 /10 min | 312.7 ± 56.1 /10 min | 315.1 ± 85.4 /10 min | 280.7 ± 61.3 /10 min | 278.6 ± 47.5 /10 min | 310.5 ± 75.3 /10 min | 237.2 ± 35.6 /10 min | 250.3 ± 46.2 /10 min | Times of activities in 24 h after drug administration/10 min ([3]; 100 mg/kg): 307.1 ± 82.3 /10 min
5 | COc1ccc(C2CC(=O)c3c(OC)c(OC)c(OC)c(OC)c3O2)cc1OC (stereo not drawn) [Example 48, 5,6,7,8,3′,4′-hexamethoxyl-flavanone] | 50.55 ± 20.76 | 3.40 ± 1.25 | 67.54 ± 21.07 | 3.19 ± 1.21 | 87.51 ± 24.93 | 2.05 ± 1.80 | 5 | 50** % | 6 | 60** % | 8 | 80*** % | 225.6 ± 43.2 /10 min | 229.4 ± 53.7 /10 min | 308.5 ± 75.2 /10 min | 145.1 ± 41.6 /10 min | 140.6 ± 40.8 /10 min | 317.4 ± 95.6 /10 min | 120.3 ± 48.3 /10 min | 118.5 ± 42.6 /10 min | Times of activities in 24 h after drug administration/10 min ([3]; 100 mg/kg): 302.1 ± 89.0 /10 min
6 | COc1cc(OC)cc(C2CC(=O)c3c(OC)cc(OC)cc3O2)c1 (stereo not drawn) [Example 49] | 37.90 ± 13.18 | 4.59 ± 1.55 | 40.75 ± 23.05 | 3.69 ± 1.32 | 57.65 ± 17.87 | 3.38 ± 1.29 | 4 | 40* % | 6 | 60** % | 7 | 70** % | 305.2 ± 78.7 /10 min | 299.8 ± 94.1 /10 min | 281.4 ± 94.3 /10 min | 267.9 ± 21.5 /10 min | 246.6 ± 13.9 /10 min | 274.2 ± 34.8 /10 min | 179.9 ± 35.9 /10 min | 170.5 ± 34.1 /10 min | Times of activities in 24 h after drug administration/10 min ([3]; 100 mg/kg): 286.1 ± 12.7 /10 min
